Reference: paper PMC9545474, “Anticancer Water‐Soluble Organoruthenium Complexes: Synthesis and Preclinical Evaluation” (Chembiochem, 2022)

What was measured:
[1] = system: PNT2 non-cancerous human prostate cells; experiment: 24-hour MTT chemosensitivity assay with 72-hour recovery, PNT2; assay type: cell-based; details: 24 h exposure, 72 h recovery, MTT; read-out: IC50 values ±SD, PNT2
Procedure: (§1) Chemosensitivity studies were undertaken using a 24‐hour MTT assay, with a 72‐hour recovery period. The IC50 values were determined against ovarian A2780 (cisplatin‐sensitive) and A2780cisR (cisplatin‐resistant) cancer cell lines, non‐small‐cell lung H460 cancer cell line, and normal prostate PNT2 cell line, exposed to each of compounds 4–8, cisplatin or the phosphine ligands (Table 1 and S4, Figures S29–S31). […] This is unusual but can be related to solubility issues not visible for the naked eye and thus hindering its activity in cells. […] When tested on their own, the phosphine ligands are not active below 100 μM for all four cell lines. […] This therefore prevents comparison with the well‐known RAPTA family, and more especially with RAPTA−C which bears a PTA ligand and a p‐cym ligand, making this complex relatively similar in terms of geometry with complex 4.[21] […] This confirms the interest of the sulfur coordinating atom in terms of cytotoxicity for organoruthenium complexes.[23]
(§2) Chemosensitivity assay: In vitro chemosensitivity tests were performed against A2780, A2780cisR, PNT2 and H460 cells. Cells were routinely maintained as monolayer cultures in RPMI 1640 medium supplemented with 10 % foetal calf serum, penicillin (100 I.U./mL) and streptomycin (100 μg/mL), sodium pyruvate (1 mM) and L‐glutamine (2 mM). For chemosensitivity studies, cells were seeded in 96‐well plates at a concentration of 7.5×10^3 cells per well and the plates were incubated for 24 h at 37 °C and a 5 % CO2 humidified atmosphere prior to drug exposure.
(§3) Complexes were dissolved in either DMSO (complexes 4, 5, and 8) or PBS (complexes 6 and 7) to provide stock solutions which were further diluted with media to provide a range of final concentrations. Drug‐media solutions were added to cells (the final concentration of DMSO was less than 1 % (v/v) in all cases) and incubated for 24 h at 37 °C and a 5 % CO2 humidified atmosphere. The drug‐media solution was removed from the wells and the cells were washed with PBS (100 μL, twice) and 200 μL of complete fresh media were added to each well. The plates were further incubated for 72 h at 37 °C and a 5 % CO2 humidified atmosphere to allow for a period of recovery. 3‐(4,5‐dimethylthiazol‐2‐yl)‐2,5‐diphenyltetrazolium bromide (MTT) (40 μL, 2.5 mg/mL) was added to each well and plates were incubated for 2 h. All solutions were then removed and 100 μL of DMSO was added to each well in order to dissolve the purple formazan crystals. A Thermo Scientific Multiskan EX microplate photometer was used to measure the absorbance in each well at 570 nm. Cell survival was determined as the absorbance of treated cells divided by the absorbance of controls and expressed as a percentage. The IC50 values were determined from plots of % survival against drug concentration. Each experiment was repeated in triplicates of triplicates and a mean value was obtained and stated as IC50 (μM) ± SD. Untreated cells were used as a negative control, and cells treated with cisplatin were used as a positive control.

A2780cisR cells = experiment: Cell viability with N-acetylcysteine (MTT), A2780cisR; assay type: cell-based, human; details: NAC 5 mM 30 min before complexes at IC50
Procedure: Cell viability with N ‐acetylcysteine: Cells were seeded in 96‐well plates at a concentration of 7.5×10^3 cells per well and the plates were incubated for 24 h at 37 °C and a 5 % CO2 humidified atmosphere prior to drug exposure. Complexes were dissolved in either DMSO or PBS to provide stock solutions which were further diluted with media to provide a range of final concentrations. Solution of N‐acetylcysteine (NAC) in media was also prepared. […] Cells were incubated for 24 h at 37 °C and a 5 % CO2 humidified atmosphere. 3‐(4,5‐dimethylthiazol‐2‐yl)‐2,5‐diphenyltetrazolium bromide (MTT) (20 μL, 2.5 mg/mL) was added to each well and plates were incubated for 2 h. All solutions were then removed and 100 μL of DMSO was added to each well in order to dissolve the purple formazan crystals. A Thermo Scientific Multiskan EX microplate photometer was used to measure the absorbance in each well at 570 nm. Cell survival was determined as the absorbance of treated cells divided by the absorbance of controls and expressed as a percentage.

[2] = system: H460 non-small-cell lung cancer cells; experiment: 24-hour MTT chemosensitivity assay with 72-hour recovery, H460; assay type: cell-based; details: for IC50: 24 h exposure, 72 h recovery, MTT, read-out: IC50 values ±SD, H460; for Selectivity index (SI), H460: mean IC50 PNT2 / mean IC50 H460
Procedure: as §1, §2, §3

[3] = system: A2780cisR cisplatin-resistant ovarian cancer cells; experiment: 24-hour MTT chemosensitivity assay with 72-hour recovery, A2780cisR; assay type: cell-based, human; details: for IC50: 24 h exposure, 72 h recovery, MTT, read-out: IC50 values ±SD, A2780cisR; for Selectivity index (SI), A2780cisR: mean IC50 PNT2 / mean IC50 A2780cisR
Procedure: as §1, §2, §3

[4] = system: A2780 ovarian cancer cells; experiment: 24-hour MTT chemosensitivity assay with 72-hour recovery, A2780; assay type: cell-based, human; details: for IC50: 24 h exposure, 72 h recovery, MTT, read-out: IC50 values ±SD, A2780; for Selectivity index (SI), A2780: mean IC50 PNT2 / mean IC50 A2780
Procedure: as §1, §2, §3

A2780 cells [5] = experiment: JC-10 mitochondrial membrane potential assay by flow cytometry; assay type: cell-based, human; details: A2780, 24 h, complexes at IC50, cisplatin 6.5 µM
Description: A membrane potential sensitive fluorescent probe JC‐10 was used to determine whether the apoptosis induced by complexes 6 and 8 is accompanied by changes in the mitochondrial membrane potential (ΔΨm) of A2780 cells. JC‐10 aggregates inside mitochondria and emits orange fluorescence. Following membrane […], JC‐10 is disaggregated and this in turn reduces the orange fluorescence.
Figure 8 Effect of complexes 6 and 8 on the mitochondrial membrane potential. […] The percentages of cells with depolarised mitochondrial membrane potential were assessed by flow cytometry after staining with JC‐10. The data are expressed as the means±SD of the three individual experiments.
Mitochondrial membrane potential assay: Analysis of the changes of mitochondrial potential in A2780 cells after exposure to complexes 6 and 8 was carried out using the JC‐10 mitochondrial membrane potential assay kit (abcam®) according to the manufacturer's instructions. Briefly, 1.0×10^6 cells per well were seeded in a 6‐well plate and incubated for 24 at 37 °C and a 5 % CO2 humidified atmosphere. […] Supernatants were removed by suction, and each well was washed with PBS before detaching the cells using trypsin. Staining of the samples was done in tubes protected from light, incubating for 30 min in the dark at room temperature. Samples were immediately analysed on a BD Accuri C6 Plus System Flow Cytometer, reading the reduction of fluorescence in the FL2 channel.

A2780 cells [6] = experiment: ROS detection, DCFH2-DA assay by flow cytometry; assay type: cell-based, human; details: A2780, five hours, IC50 concentrations
Procedure: To confirm the hypothesis of induction of oxidative stress by complexes 6 and 8, based on the potential mechanism of action observed for complex 3, the intracellular production of ROS in A2780 cells exposed to the complexes was investigated using the fluorescent DCFH2‐DA assay with the analysis performed by flow cytometry.
ROS detection: Flow cytometry analysis of total induction of ROS in A2780 cells caused by exposure to complexes 6 and 8 was carried out using DCFH2‐DA assay. Briefly, 1.0×10^6 cells per well were seeded in a 6‐well plate and incubated for 24 at 37 °C and a 5 % CO2 humidified atmosphere. After removal of the media, cells were washed with PBS and loaded with DCFH2‐DA dye (20 μM, in basal RPMI). […] Cells were washed with PBS and harvested with trypsin. Cells were analysed in a BD Accuri C6 Plus System Flow Cytometer using Ex/Em: 490/525 nm for the oxidative stress detection. Data was analysed using the BD Accuri C6 Plus software.

Compound	IC50 [1] [nM]	Cell viability after pre-treatment with NAC (A2780cisR cells)	IC50 [2] [µM]	Selectivity index (SI), H460 [2]	IC50 [3] [nM]	Selectivity factor (cross-resistance, resistance factor RF) ([3]; IC50 A2780cisR / IC50 A2780)	Selectivity index (SI), A2780cisR [3]	IC50 [4] [nM]	Selectivity index (SI), A2780 [4]	% cell population with high orange fluorescence (A2780 cells [5]; Experiment 1) [%]	% cell population with low orange fluorescence (A2780 cells [5]; Experiment 1) [%]	% cell population with high orange fluorescence (A2780 cells [5]; Experiment 2) [%]	% cell population with low orange fluorescence (A2780 cells [5]; Experiment 2) [%]	% cell population with high orange fluorescence (A2780 cells [5]; Experiment 3) [%]	% cell population with low orange fluorescence (A2780 cells [5]; Experiment 3) [%]	% cell population with high orange fluorescence (A2780 cells [5]; Summary, mean values ± SD) [%]	% cell population with low orange fluorescence (A2780 cells [5]; Summary, mean values ± SD) [%]	ROS levels in treated cells compared to untreated cells (A2780 cells [6])
(η^6‐p‐cymene)(TPPTS)Ru(Mnt) [Complex 6]	1600 ± 300	increase of the cell viability	2 ± 0.2	0.80	1300 ± 10	2.2	1.23	600 ± 70	2.67	60.4	39.6	55.5	44.5	62.7	37.3	59.5 ± 3.7	40.5 ± 3.7	significant increase of ROS levels
Cc1ccc(C(C)C)cc1.N#CC1=C(C#N)[S][Ru-]([P+](c2ccccc2)(c2ccccc2)c2ccccc2)[S]1 [Complex 8, (η^6‐p‐cymene)(PPh3)Ru(Mnt)]	2400 ± 200	increase of the cell viability	5.7 ± 0.8	0.42	980 ± 60		2.45	960 ± 40	2.50	81.9	18.1	82.5	17.5	80.0	20.0	81.5 ± 1.3	18.5 ± 1.3	significant increase of ROS levels
